Reference: patent US12486269B2 (Aconcagua Bio, Inc., priority 2024, dated 2025)

Experiments:
[1] = target: T1, human calcitonin receptor (CTR) (Homo sapiens, UniProt P30988); assay: Calcitonin Receptor (CTR) cAMP Assay; type: cell-based; conditions: COS7-human CTR Clone #2 stable cell line, cAMP dynamic 2 kit, 30 min; read-out: Calcitonin Receptor cAMP Stimulation Activity: EC50
T1 construct: expressed in transfected cells; host or cells: COS-7 (COS7-human CTR Clone #2)
T1 sequence (P30988 25-474): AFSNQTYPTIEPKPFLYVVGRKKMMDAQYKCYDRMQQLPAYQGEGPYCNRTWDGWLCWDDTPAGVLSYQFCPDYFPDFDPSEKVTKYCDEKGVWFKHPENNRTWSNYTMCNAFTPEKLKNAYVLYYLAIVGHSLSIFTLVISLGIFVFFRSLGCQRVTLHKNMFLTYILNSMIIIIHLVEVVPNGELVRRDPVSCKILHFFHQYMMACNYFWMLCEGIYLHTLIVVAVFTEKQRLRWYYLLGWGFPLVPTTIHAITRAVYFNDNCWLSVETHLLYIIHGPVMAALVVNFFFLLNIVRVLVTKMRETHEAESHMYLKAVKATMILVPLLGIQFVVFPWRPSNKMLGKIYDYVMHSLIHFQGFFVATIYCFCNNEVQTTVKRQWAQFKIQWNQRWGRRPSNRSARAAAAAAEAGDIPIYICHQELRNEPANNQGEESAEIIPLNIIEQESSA
Procedure, shortened: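 COS-7 cells stably expressing human CTR (2000 cells/well) were incubated 30 min at 37 °C with 4-fold serially diluted compound in HBSS/20 mM HEPES/0.5 mM IBMX/0.1% casein. cAMP was detected by HTRF (665/615 nm) after 1 h at RT. % activity was normalised to vehicle and positive controls.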

[2] = target: T2, COS-7/AMY3 (human calcitonin receptor (CTR) and RAMP3) (Homo sapiens, UniProt O60896+P30988); assay: Amylin Receptor cAMP Assay II; type: cell-based; conditions: values marked **: Amylin Receptor cAMP Assay II; COS-7/AMY3 cells, cAMP dynamic 2 kit, 30 min; read-out: Amylin Receptor cAMP Stimulation Activity: EC50
T2 construct: expressed in transfected cells; host or cells: COS-7
T2 sequence (O60896 24-148, one chain of several): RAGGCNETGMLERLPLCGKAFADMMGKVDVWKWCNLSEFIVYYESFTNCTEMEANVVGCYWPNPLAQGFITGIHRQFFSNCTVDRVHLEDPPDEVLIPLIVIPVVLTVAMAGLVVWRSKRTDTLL
Procedure, shortened: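 COS-7 cells stably co-expressing human CTR and RAMP3 (AMY3), 2000 cells/well in HBSS with 20 mM HEPES, 0.5 mM IBMX, 0.1% casein, stimulated with compound for 30 min at 37 °C. cAMP measured by HTRF (665/615 nm), activity normalized between vehicle and maximal control.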

Row | EC50 [1] [nM] | EC50 [2] [nM] | Compound
1 | 0.0666 | 1.45 | O=C1c2c(nc(CCc3ccc(F)cc3)c(-c3n[nH]c(=O)o3)c2-c2cc3ccnc(N[C@@H]4CCc5c(F)cccc54)c3s2)C23CC(CN12)C3 [Compound 272, (R)-5-(4-(7-((4-fluoro-2,3-dihydro-1H-inden-1-yl)amino)thieno[2,3-c]pyridin-2-yl)-2-(4-fluorophenethyl)-5-oxo-8,9-dihydro-5H,7H-8,9a-methanopyrido[2,3-a]pyrrolizin-3-yl)-1,3,4-oxadiazol-2(3H)-one]
2 | 0.165 | 1.79 | O=C1c2c(nc(CCc3ccc(F)cc3)c(-c3n[nH]c(=O)o3)c2-c2cc3ccnc(N[C@@H]4CCc5cc(Cl)ccc54)c3s2)C23CC(CN12)C3 [Compound 273, (R)-5-(4-(7-((5-chloro-2,3-dihydro-1H-inden-1-yl)amino)thieno[2,3-c]pyridin-2-yl)-2-(4-fluorophenethyl)-5-oxo-8,9-dihydro-5H,7H-8,9a-methanopyrido[2,3-a]pyrrolizin-3-yl)-1,3,4-oxadiazol-2(3H)-one]
3 | 0.255 | 4.54 | O=C1c2c(nc(CCc3ccc(F)cc3)c(-c3n[nH]c(=O)o3)c2-c2cc3ccnc(N[C@@H]4CCc5ccc(Cl)cc54)c3s2)C23CC(CN12)C3 [Compound 274, (R)-5-(4-(7-((6-chloro-2,3-dihydro-1H-inden-1-yl)amino)thieno[2,3-c]pyridin-2-yl)-2-(4-fluorophenethyl)-5-oxo-8,9-dihydro-5H,7H-8,9a-methanopyrido[2,3-a]pyrrolizin-3-yl)-1,3,4-oxadiazol-2(3H)-one]
4 | 0.0262 | 0.394 | COc1c(F)ccc2c1CC[C@H]2Nc1nccc2cc(-c3c4c(nc(CCc5cccc(F)c5)c3-c3n[nH]c(=O)o3)C35CC(CN3C4=O)C5)sc12 [Compound 275, (R)-5-(4-(7-((5-fluoro-4-methoxy-2,3-dihydro-1H-inden-1-yl)amino)thieno[2,3-c]pyridin-2-yl)-2-(3-fluorophenethyl)-5-oxo-8,9-dihydro-5H,7H-8,9a-methanopyrido[2,3-a]pyrrolizin-3-yl)-1,3,4-oxadiazol-2(3H)-one]
5 | 0.0602 | 1.57 | COc1c(F)ccc2c1CC[C@H]2Nc1nccc2cc(-c3c4c(nc(CCc5ccccc5F)c3-c3n[nH]c(=O)o3)C35CC(CN3C4=O)C5)sc12 [Compound 276, (R)-5-(4-(7-((5-fluoro-4-methoxy-2,3-dihydro-1H-inden-1-yl)amino)thieno[2,3-c]pyridin-2-yl)-2-(2-fluorophenethyl)-5-oxo-8,9-dihydro-5H,7H-8,9a-methanopyrido[2,3-a]pyrrolizin-3-yl)-1,3,4-oxadiazol-2(3H)-one]
6 | 0.0207 | 0.368 | COc1c(F)ccc2c1CC[C@H]2Nc1nccc2cc(-c3c4c(nc(CCc5cccc(Cl)c5)c3-c3n[nH]c(=O)o3)C35CC(CN3C4=O)C5)sc12 [Compound 277, (R)-5-(2-(3-chlorophenethyl)-4-(7-((5-fluoro-4-methoxy-2,3-dihydro-1H-inden-1-yl)amino)thieno[2,3-c]pyridin-2-yl)-5-oxo-8,9-dihydro-5H,7H-8,9a-methanopyrido[2,3-a]pyrrolizin-3-yl)-1,3,4-oxadiazol-2(3H)-one]
7 | 0.0636 | 0.517 | COc1c(F)ccc2c1CC[C@H]2Nc1nccc2cc(-c3c4c(nc(CCc5ccccc5Cl)c3-c3n[nH]c(=O)o3)C35CC(CN3C4=O)C5)sc12 [Compound 278, (R)-5-(2-(2-chlorophenethyl)-4-(7-((5-fluoro-4-methoxy-2,3-dihydro-1H-inden-1-yl)amino)thieno[2,3-c]pyridin-2-yl)-5-oxo-8,9-dihydro-5H,7H-8,9a-methanopyrido[2,3-a]pyrrolizin-3-yl)-1,3,4-oxadiazol-2(3H)-one]
8 | 0.051 | 0.318 | O=C1c2c(nc(CCc3ccc(F)cc3)c(-c3n[nH]c(=O)o3)c2-c2cc3ccnc(N[C@@H]4CCc5c(F)cc(F)cc54)c3s2)C23CC(CN12)C3 [Compound 279, (R)-5-(4-(7-((4,6-difluoro-2,3-dihydro-1H-inden-1-yl)amino)thieno[2,3-c]pyridin-2-yl)-2-(4-fluorophenethyl)-5-oxo-5,7,8,9-tetrahydro-8,9a-methanopyrido[2,3-a]pyrrolizin-3-yl)-1,3,4-oxadiazol-2(3H)-one]
9 | 0.114 | 0.935 | O=C1c2c(nc(CCc3ccc(F)cc3)c(-c3n[nH]c(=O)o3)c2-c2cc3ccnc(N[C@@H]4CCc5cc(F)ccc54)c3s2)C23CC(CN12)C3 [Compound 280, (R)-5-(4-(7-((5-fluoro-2,3-dihydro-1H-inden-1-yl)amino)thieno[2,3-c]pyridin-2-yl)-2-(4-fluorophenethyl)-5-oxo-5,7,8,9-tetrahydro-8,9a-methanopyrido[2,3-a]pyrrolizin-3-yl)-1,3,4-oxadiazol-2(3H)-one]
10 | 0.239 | 0.733 | COc1cccc2c1CC(F)(F)[C@H]2Nc1nccc2cc(-c3c4c(nc(CCc5ccc(F)cc5)c3-c3n[nH]c(=O)o3)C35CC(CN3C4=O)C5)sc12 [Compound 281, (S)-5-(4-(7-((2,2-difluoro-4-methoxy-2,3-dihydro-1H-inden-1-yl)amino)thieno[2,3-c]pyridin-2-yl)-2-(4-fluorophenethyl)-5-oxo-5,7,8,9-tetrahydro-8,9a-methanopyrido[2,3-a]pyrrolizin-3-yl)-1,3,4-oxadiazol-2(3H)-one]
11 | 0.0464 | 0.464 | COc1c(F)ccc2c1CC(F)(F)[C@H]2Nc1nccc2cc(-c3c4c(nc(CCc5ccc(F)cc5)c3-c3n[nH]c(=O)o3)[C@@H]3CCCN3C4=O)sc12 [Compound 282, 5-((S)-2-(4-fluorophenethyl)-5-oxo-4-(7-(((S)-2,2,5-trifluoro-4-methoxy-2,3-dihydro-1H-inden-1-yl)amino)thieno[2,3-c]pyridin-2-yl)-7,8,9,9a-tetrahydro-5H-pyrido[2,3-a]pyrrolizin-3-yl)-1,3,4-oxadiazol-2(3H)-one]
12 | 0.0191 | 1.57 | COc1c(F)ccc2c1CC(F)(F)[C@H]2Nc1nccc2cc(-c3c4c(nc(CCc5ccc(F)cc5)c3-c3n[nH]c(=O)o3)C35CC(CN3C4=O)C5)sc12 [Compound 283, (S)-5-(2-(4-fluorophenethyl)-5-oxo-4-(7-((2,2,5-trifluoro-4-methoxy-2,3-dihydro-1H-inden-1-yl)amino)thieno[2,3-c]pyridin-2-yl)-5,7,8,9-tetrahydro-8,9a-methanopyrido[2,3-a]pyrrolizin-3-yl)-1,3,4-oxadiazol-2(3H)-one]
13 | 4.23 | 81.6 | COc1cccc2c1CC(F)(F)[C@H]2Nc1nccc2cc(-c3c4c(nc(CCc5ccc(F)cc5)c3-c3n[nH]c(=O)o3)[C@@H]3COCCN3C4=O)sc12 [Compound 284, (R)-4-(7-(((S)-2,2-difluoro-4-methoxy-2,3-dihydro-1H-inden-1-yl)amino)thieno[2,3-c]pyridin-2-yl)-2-(4-fluorophenethyl)-3-(5-oxo-4,5-dihydro-1,3,4-oxadiazol-2-yl)-7,8,10,10a-tetrahydro-5H-pyrido[2′,3′:3,4]pyrrolo[2,1-c][1,4]oxazin-5-one]
14 | 0.0136 | 0.208 | O=C1c2c(nc(CCc3ccc(F)cc3)c(-c3n[nH]c(=O)o3)c2-c2cc3ccnc(N[C@@H]4CCc5c4ccc(F)c5OC(F)F)c3s2)C23CC(CN12)C3 [Compound 285, (R)-5-(4-(7-((4-(difluoromethoxy)-5-fluoro-2,3-dihydro-1H-inden-1-yl)amino)thieno[2,3-c]pyridin-2-yl)-2-(4-fluorophenethyl)-5-oxo-5,7,8,9-tetrahydro-8,9a-methanopyrido[2,3-a]pyrrolizin-3-yl)-1,3,4-oxadiazol-2(3H)-one]
15 | 0.00668 | 0.175 | COc1c(F)c(F)cc2c1CC[C@H]2Nc1nccc2cc(-c3c4c(nc(CCc5ccc(F)cc5)c3-c3n[nH]c(=O)o3)C35CC(CN3C4=O)C5)sc12 [Compound 286, (R)-5-(4-(7-((5,6-difluoro-4-methoxy-2,3-dihydro-1H-inden-1-yl)amino)thieno[2,3-c]pyridin-2-yl)-2-(4-fluorophenethyl)-5-oxo-8,9-dihydro-5H,7H-8,9a-methanopyrido[2,3-a]pyrrolizin-3-yl)-1,3,4-oxadiazol-2(3H)-one]
16 | 0.0178 | 0.35 | COc1c(F)ccc2c1CC[C@H]2Nc1nc(C(F)F)cc2cc(-c3c4c(nc(CCc5ccc(F)cc5)c3-c3n[nH]c(=O)o3)C35CC(CN3C4=O)C5)sc12 [Compound 287, (R)-5-(4-(5-(difluoromethyl)-7-((5-fluoro-4-methoxy-2,3-dihydro-1H-inden-1-yl)amino)thieno[2,3-c]pyridin-2-yl)-2-(4-fluorophenethyl)-5-oxo-8,9-dihydro-5H,7H-8,9a-methanopyrido[2,3-a]pyrrolizin-3-yl)-1,3,4-oxadiazol-2(3H)-one]
